Article PMC7594083, “Preclinical Evaluation of the GRPR-Targeting Antagonist RM26 Conjugated to the Albumin-Binding Domain for GRPR-Targeting Therapy of Cancer” (Pharmaceutics, 2020)

What was measured:
[1] = Circular dichroism, secondary structure/helicity; format: physicochemical
Experimental: The secondary structures of ABD035, DOTA-ABD-Cl and DOTA-ABD-RM26 were determined by circular dichroism spectroscopy (Chirascan, Applied Photophysics, Leatherhead, UK). All CD spectra were obtained at 20 °C using a protein concentration of 0.2 mg/mL in 20 mM potassium phosphate buffer with 100 mM KCl pH 7.4. To estimate the percentage of helicity in each construct, the measured ellipticity (θobs) was first converted to the mean residue ellipticity (MRE) using the following formula MRE = θobs/10 × l × C × n, where l is the pathlength in cm, C is the peptide concentration in the molar, and n is the number of residues in each construct. From the mean residue ellipticity at 222 nm, MRE222, the fraction helix, FH, was calculated using the following formula, FH = (MRE222 − [θ]C)/([θ]H − [θ]C). [θ]H and [θ]C are given by [θ]H = 40,000 × (1 − (2.5/n) + 100 × T, and [θ]C = 640 − 45 × T. T is given in °C, here 20, and n is the number of residues in each construct (Scholtz 1991).

[2] = Thermal melting by circular dichroism; format: physicochemical; settings: CD, 0.2 mg/mL in 20 mM potassium phosphate, 100 mM KCl, pH 7.4; estimated (only roughly for DOTA-ABD-RM26)

Question: For CC[C@H](C)[C@H](NC(=O)[C@H](Cc1c[nH]cn1)NC(=O)[C@H](CC(C)C)NC(=O)[C@H](CCCCN)NC(=O)[C@H](CC(C)C)NC(=O)[C@H](C)NC(=O)[C@H](CCC(=O)O)NC(=O)[C@@H](NC(=O)CNC(=O)[C@H](CCC(=O)O)NC(=O)[C@@H](NC(=O)[C@@H](NC(=O)[C@H](CCCCN)NC(=O)[C@H](C)NC(=O)[C@H](CCCCN)NC(=O)[C@H](CC(N)=O)NC(=O)[C@@H](NC(=O)[C@H](CC(C)C)NC(=O)[C@H](CCCNC(=N)N)NC(=O)[C@H](CCCCN)NC(=O)[C@H](Cc1ccc(O)cc1)NC(=O)[C@H](Cc1ccccc1)NC(=O)[C@H](CC(=O)O)NC(=O)[C@H](CO)NC(=O)[C@@H](NC(=O)CNC(=O)[C@H](Cc1ccc(O)cc1)NC(=O)[C@H](CCCCNC(=O)CCl)NC(=O)[C@H](CC(=O)O)NC(=O)[C@H](CC(C)C)NC(=O)[C@H](CCC(=O)O)NC(=O)[C@H](CCCNC(=N)N)NC(=O)[C@H](CC(N)=O)NC(=O)[C@H](C)NC(=O)[C@H](CC(C)C)NC(=O)[C@@H](NC(=O)[C@H](CCCCN)NC(=O)[C@H](C)NC(=O)[C@H](CCC(=O)O)NC(=O)[C@H](C)NC(=O)[C@H](CC(C)C)NC(=O)CN1CCN(CC(=O)O)CCN(CC(=O)O)CCN(CC(=O)O)CC1)C(C)C)C(C)C)[C@@H](C)CC)[C@@H](C)O)C(C)C)C(C)C)C(=O)N[C@@H](CC(C)C)C(=O)N[C@@H](C)C(=O)N[C@@H](C)C(=O)N[C@@H](CC(C)C)C(=O)N1CCC[C@H]1C(N)=O [DOTA-ABD-Cl], which CD spectrum pattern ([1]; 20 °C, 0.2 mg/mL, 20 mM potassium phosphate with 100 mM KCl pH 7.4) is on record?
Answer: The CD spectrum pattern was “characteristic alpha-helical pattern”.

Question: And the helicity ([1]; from MRE222, 20 °C, 0.2 mg/mL, 20 mM potassium phosphate with 100 mM KCl pH 7.4, helix-coil theory)?
Answer: Its helicity is “approximately 60%”.

Question: And the “residues in helical conformation” value ([1]; from MRE222, 20 °C, pH 7.4, out of 49 (ABD035), 46 (DOTA-ABD-Cl), 56 (ABD-RM26) residues)?
Answer: The value was 27 residues.

Question: And the “melting temperature (Tm)” value [2]?
Answer: Its value is 50 °C.
